Measurements from US9181183B2, “Prostaglandin D synthase inhibitory piperidine compounds” (Taiho Pharmaceutical Co., Ltd., priority 2010, dated 2015).

These molecules were tested against human H-PGDS (Homo sapiens, UniProt O60760) (assay: Hematopoietic prostaglandin D synthase (H-PGDS) inhibiting action, [14C]PGH2 to PGD2 conversion, TLC radioassay). Conditions: compound 0.1 μM; inhibition rate relative to solvent control group; [14C] prostaglandin H2 10 μM, 25° C.
human H-PGDS, sequence (O60760 whole entry): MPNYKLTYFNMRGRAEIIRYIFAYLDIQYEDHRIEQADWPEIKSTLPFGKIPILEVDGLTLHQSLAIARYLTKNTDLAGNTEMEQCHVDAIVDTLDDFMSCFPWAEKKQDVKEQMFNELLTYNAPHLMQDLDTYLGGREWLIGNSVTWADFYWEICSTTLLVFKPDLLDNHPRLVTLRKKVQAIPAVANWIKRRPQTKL
Format: biochemical
Experimental: The test was carried out according to the method of Urade, Y. et al. (J. Biol. Chem., 262, 3820-3825, (1987)). More specifically, a reaction mixture (49 μL) containing 100 mM Tris-HCl (pH 8.0), 1 mM reduced form glutathione, 0.1 mg/mL γ-globulin, human H-PGDS (q.s.), and a compound (0.1 μM) was preincubated at 25° C. for 5 minutes. A DMSO solution (final concentration: 1%) was added to the solvent control group. Subsequently, 1 μL of [^14C] prostaglandin H2 (final concentration: 10 μM) was added to start the reaction. One minute after the start of the reaction, 250 μL of a reaction stopper solution (diethylether/methanol/1M citric acid (30/4/1)) cooled with ice was added to stop the reaction. After the reaction was stopped, 50 μL of the upper layer portion (organic solvent phase) was applied to a TLC plate and developed at −20° C. for 45 minutes (developing solvent: diethylether/methanol/acetic acid (90/2/1)). After the TLC plate was dried and exposed to an imaging plate for 1 to 24 hours, the radioactivity corresponding to prostaglandin D2 (PGD2) was analyzed using an image analyzer (produced by Fujifilm Corporation). The area (%) occupied by the PGD2 band per lane and the inhibition rate (%) of each Example compound at 0.1 μM relative to the control group in each experiment were calculated.
In the case of “N-(5-(4-(cyclopropylcarboxamido)phenyl)thiazol-2-yl)-4-(pyridin-2-ylmethylene)piperidine-1-carboxamide [Example 21]”, the “H-PGDS inh. (% at 0.1 μM)” value is reported as 58.7%.
In the case of “N-(4-(2-(4-(pyridin-2-ylmethylene)piperidine-1-carboxamido)thiazol-5-yl)phenyl)morpholin-1-yl-carboxamide [Example 25]”, the “H-PGDS inh. (% at 0.1 μM)” value is reported as 56.4%.
For “N-(5-(morpholin-1-yl-carbonyl)thiazol-2-yl)-4-(pyridin-2-ylmethylene)piperidine-1-carboxamide [Example 13]”, the “H-PGDS inh. (% at 0.1 μM)” value was 48.3%.

Same assay, conditions: compound 0.1 μM; inhibition rate relative to solvent control group; [14C] prostaglandin H2 10 μM, 25° C.; read-out: H-PGDS inh. (% at 0.1 μM)
O=C(Nc1ccc2nc(NC(=O)N3CCC(=Cc4ccccn4)CC3)sc2c1)N1CCOCC1 [Example 11, N-(2-(4-(pyridin-2-ylmethylene)piperidine-1-carboxamido)benzo[d]thiazol-6-yl)morpholine-4-carboxamide] gave an inhibition at 0.1 µM of 52.4%.
O=C(NC1CCN(c2ccc(CCn3ccnn3)cc2)CC1)N1CCC(=Cc2cc(F)ccc2F)CC1 [Example 34, N-(1-(4-(2-(1H-1,2,3-triazol-1-yl)ethyl)phenyl)piperidin-4-yl)-4-(2,5-difluorobenzylidene)piperidine-1-carboxamide] showed an inhibition at 0.1 µM of 77.8%.
In the case of O=C(O)c1ccc(-c2cnc(NC(=O)N3CCC(=Cc4ccccn4)CC3)s2)nc1 [Example 27, 6-(2-(4-(pyridin-2-ylmethylene)piperidine-1-carboxamido)thiazol-5-yl)nicotinic acid], the inhibition at 0.1 µM is reported as 50.2%.
Work on O=C(Nc1ccccn1)N1CCC(NC(=O)N2CCC(=Cc3cc(F)ccc3F)CC2)CC1 [Example 64, 4-(2,5-difluorobenzylidene)-N-(1-(pyridin-2-ylcarbamoyl)piperidin-4-yl)piperidine-1-carboxamide] yielded an inhibition at 0.1 µM of 51%.
Work on O=C(Nc1cnc2ccccc2c1)N1CCC(=Cc2cc(F)ccc2F)CC1 [Example 42, 4-(2,5-difluorobenzylidene)-N-(quinolin-3-yl)piperidine-1-carboxamide] yielded an inhibition at 0.1 µM of 61.4%.
In the case of O=C(NC1CCN(C(=O)C2CCCC2)CC1)N1CCC(=Cc2cc(F)ccc2F)CC1 [Example 53, N-(1-(cyclopentanecarbonyl)piperidin-4-yl)-4-(2,5-difluorobenzylidene)piperidine-1-carboxamide], the inhibition at 0.1 µM is reported as 69%.
With O=C(NC1CC1)c1ccc(-c2ccc(NC(=O)N3CCC(=Cc4ccccn4)CC3)cn2)cc1 [Example 30, N-(6-(4-(cyclopropylcarbamoyl)phenyl)pyridin-3-yl)-4-(pyridin-2-ylmethylene)piperidine-1-carboxamide] the inhibition at 0.1 µM was 67.1%.
For O=C(Nc1ccccc1)N1CCC(NC(=O)N2CCC(=Cc3cc(F)ccc3F)CC2)CC1 [Example 56, 4-(2,5-difluorobenzylidene)-N-(1-(phenylcarbamoyl)piperidin-4-yl)piperidine-1-carboxamide], the inhibition at 0.1 µM was 59.3%.
With O=C(Nc1ccccc1)Nc1ccc(NC(=O)N2CCC(=Cc3cc(F)ccc3F)CC2)cc1 [Example 73, 4-(2,5-difluorobenzylidene)-N-(4-(3-phenylureido)phenyl)piperidine-1-carboxamide] the inhibition at 0.1 µM was 71%.
In the case of O=C(O)c1ccc(-c2cnc(NC(=O)N3CCC(=Cc4ccccn4)CC3)s2)cc1 [Example 20, 4-(2-(4-(pyridin-2-ylmethylene)piperidine-1-carboxamido)thiazol-5-yl)benzoic acid], the inhibition at 0.1 µM is reported as 61.4%.
Molecule COC(=O)c1ccccc1CNC(=O)N1CCC(=Cc2cc(F)ccc2F)CC1 [Example 78, Methyl 2-((4-(2,5-difluorobenzylidene)piperidine-1-carboxamido)methyl)benzoate] has an inhibition at 0.1 µM of 48.3%.
O=C(Nc1ncc(Cn2cncn2)s1)N1CCC(=Cc2cc(F)ccc2F)CC1 [Example 81, N-(5-((1H-1,2,4-triazol-1-yl)methyl)thiazol-2-yl)-4-(2,5-difluorobenzylidene)piperidine-1-carboxamide] gave an inhibition at 0.1 µM of 72.8%.
CN(C)C(=O)N1CCC(NC(=O)N2CCC(=Cc3cc(F)ccc3F)CC2)CC1 [Example 52, 4-(4-(2,5-difluorobenzylidene)piperidine-1-carboxamido)-N,N-dimethylpiperidine-1-carboxamide] showed an inhibition at 0.1 µM of 74.6%.
Work on O=C(NC1CCN(C(=O)c2cscn2)CC1)N1CCC(=Cc2cc(F)ccc2F)CC1 [Example 59, 4-(2,5-difluorobenzylidene)-N-(1-(thiazole-4-carbonyl)piperidin-4-yl)piperidine-1-carboxamide] yielded an inhibition at 0.1 µM of 76.8%.
In the case of CN(C)C(=O)c1ccc(-c2ccc(NC(=O)N3CCC(=Cc4ccccn4)CC3)cn2)cc1 [Example 31, N-(6-(4-(dimethylcarbamoyl)phenyl)pyridin-3-yl)-4-(pyridin-2-ylmethylene)piperidine-1-carboxamide], the inhibition at 0.1 µM is reported as 52.9%.
Molecule O=C(Nc1nc2ccc(-c3ccncc3)cc2s1)N1CCC(=Cc2ccccn2)CC1 [Example 5, N-(6-(pyridin-4-yl)-benzo[d]thiazol-2-yl)-4-(pyridin-2-ylmethylene)-piperidine-1-carboxamide] has an inhibition at 0.1 µM of 77.8%.
O=C(Nc1ccc(-c2cnc(NC(=O)N3CCC(=Cc4ccccn4)CC3)s2)cc1)c1cscn1 [Example 26, N-(4-(2-(4-(pyridin-2-ylmethylene)piperidine-1-carboxamido)thiazol-5-yl)phenyl)thiazole-4-carboxamide] gave an inhibition at 0.1 µM of 57.4%.
O=C(NC1CCN(C(=O)c2cccc(F)n2)CC1)N1CCC(=Cc2cc(F)ccc2F)CC1 [Example 66, 4-(2,5-difluorobenzylidene)-N-(1-(6-fluoropicolinoyl)piperidin-4-yl)piperidine-1-carboxamide] gave an inhibition at 0.1 µM of 68.6%.
Work on N#Cc1cccc(CN2CCC(NC(=O)N3CCC(=Cc4cc(F)ccc4F)CC3)CC2)c1 [Example 37, N-(1-(3-cyanobenzyl)piperidin-4-yl)-4-(2,5-difluorobenzylidene)piperidine-1-carboxamide] yielded an inhibition at 0.1 µM of 64.8%.
COc1ccc(-c2ccc3nc(NC(=O)N4CCC(=Cc5ccccn5)CC4)sc3c2)cn1 [Example 7, N-(6-(2-methoxypyridin-5-yl)-benzo[d]thiazol-2-yl)-4-(pyridin-2-ylmethylene)-piperidine-1-carboxamide] was tested, and the inhibition at 0.1 µM was 74.2%.
Work on O=C(Nc1cnc2ccccc2c1)N1CCC(=Cc2ccccn2)CC1 [Example 85, 4-(pyridin-2-ylmethylene)-N-(quinolin-3-yl)piperidine-1-carboxamide] yielded an inhibition at 0.1 µM of 35%.
